Experimental data: patent US11548925B2, “CACNA1H-derived tumor antigen polypeptide and use thereof” (Genoimmune Therapeutics Co., Ltd., priority 2016, dated 2023)

Experiments:
[1] = tested on: H2087-TLISSLMPI (SEQ ID NO: 2) subcutaneous tumor; experiment: DC peptide vaccine in H2087-[…] subcutaneous tumor model; format: in vivo, NOD/SCID mice; conditions: DC loaded with peptide, intracutaneous, 2 injections; vs DC loaded with wild-type peptide
Description: 600-900 ml of anticoagulated peripheral blood was collected from healthy volunteers for isolating peripheral blood mononuclear cells (PBMCs) via Ficoll. Cells were collected for use. 2×10^7 PBMCs per 0.5 ml was intraperitoneally injected into each of 300 NOD SCID mice without immune leakage to perform human immune reconstitution in NOD SCID mice. After 4 weeks, the mice were selected to be inoculated with the human lung cancer cell line.
The human non-small cell lung adenocarcinoma cell line H2087-[…] (SEQ ID NO: 2) as established in Example 7 was cultured in DMEM medium containing 10% fetal bovine serum, 100 U/mL penicillin and 100 U/mL streptomycin in an incubator at 37° C., 5% CO2. H2087-[…] […] The long diameter a and the short diameter b of the tumor were measured with a vernier caliper every 2-3 days and the size of the tumor was calculated as a*b*b/2. The mice and tumors were weighed and recorded every day. […] The tumor volume and the survival rate of mice were recorded every 2 days. […]
Tumor-bearing mice were randomly divided into 7 groups: DC loaded with wild-type peptide group, DC loaded with the mutant peptide […] […] After injection, vital signs of the mice were observed, and the vertical and horizontal dimensions of tumors were measured with a vernier caliper every two days. Tumor volume was calculated as follows: tumor volume=½×length×width^2. […]

[2] = tested on: H2087-TLISSLMPI (SEQ ID NO: 2) subcutaneous tumor; experiment: Peptide-specific DC-CTL vaccine in H2087-[…] tumor model; format: in vivo, NOD/SCID mice; conditions: DC-CTL activated by peptide, tail vein, about 1×10^8 cells; vs wild-type peptide group
Description: The human non-small cell lung adenocarcinoma cell line H2087-[…] (SEQ ID NO: 2) as established in Example 7 was cultured in DMEM medium containing 10% fetal bovine serum, 100 U/mL penicillin and 100 U/mL streptomycin in an incubator at 37° C., 5% CO2. H2087-[…] (SEQ ID NO: 2) tumor cells were collected, centrifuged at 1500 rpm for 5 min, and washed 3 times with sterile physiological saline. The tumor cells were diluted appropriately. To 40 μl of cell suspension was added 10 μl of 0.4% […] for staining and microscopically counting cells. A tumor cell suspension at a concentration of 1*10^8 cells/ml was prepared. 100 μl of the tumor cell suspension was inoculated subcutaneously into a NOD/SCID mouse or an immune-reconstituted NOD/SCID mouse. […] The long diameter a and the short diameter b of the tumor were measured with a vernier caliper every 2-3 days and the size of the tumor was calculated as a*b*b/2. The mice and tumors were weighed and recorded every day. […] The tumor volume and the survival rate of mice were recorded every 2 days. […]
The collected PBLs were subjected to magnetic bead sorting to obtain CD8+ T cells, which were sensitized by co-incubation with DCs loaded with the wild-type peptide, DCs loaded with the mutant peptide […] […] The number of lymphocytes was counted and a cell proliferation index (PI) was calculated on days 0, 7, 14, and 21 of culture, respectively. […]

TLISSLMPI [tumor antigen peptide from CACNA1H mutation, position 1428 arginine to methionine]
Survival period of mice [1]: significantly prolonged survival period of mice
Tumor growth [1]: slowed down tumor growth in mice
Survival period of mice [2]: prolonged the survival period of mice
Tumor-suppressing effect [2]: significant tumor-suppressing effects
